Residues, ends and D or L forms follow the SMILES beside them. *: point of attachment. Palmitoyl = CCCCCCCCCCCCCCCC(=O)*
Columns and labels:
[1] = Ex vivo skin penetration study (Franz cell); format: in vitro ADME, human; details: arrays 1 (uni-directional, 27 mT) and 2 (bi-directional, overall 21 mT) of Table 1 versus other arrays tested; 400 μg/ml in 50:50 PG:PB at pH 4
Description: An ex vivo skin penetration study was conducted to compare the ability of different magnetic arrays to enhance penetration of Pal-KTTKS (SEQ ID NO: 1) into the epidermis of human skin. The dermis and epidermis of human skin samples obtained from donors aged 60-65 years were heat separated and the dermis discarded. 20 μL of a Pal-KTTKS (SEQ ID NO: 1) containing composition (400 μg/ml in 50:50 PG:PB at pH 4) was placed on human epidermis in Franz cell. Different magnetic arrays were positioned approximately 1.0 mm above the epidermis samples and moved over the samples at the speed a user might move a cosmetic applicator when applying a skin care product (e.g., about 20-25 cm/sec). Samples were taken and measured at 0, 1, 2, 4, 6, 8, 24 hours. […] For the bi-directional arrays herein, the “1st layer” refers to the layer closest to the skin-contacting surface of the applicator, and the “2nd layer” refers to the layer disposed on the side of the 1st layer opposite the side closest to the skin-contacting surface.

[2] = In vivo skin penetration study #2 (Tape Stripping method), magnetic vs non-magnetic applicator; parameters: species or system human; details: for amount of Pal-KTTKS recovered, Sum 2-10 / amount of Pal-KTTKS recovered, Sum 6-10: in ng (unit assumed)
Description: This method provides a suitable means of measuring the amount of skin care active present in skin, and comparing active versus passive application of the skin care active. Two identical rectangular areas of 15 cm^2 are marked on the volar forearms of volunteers. A measured dose (approximately 30 mg) of the Pal-KTTKS (SEQ ID NO: 1) formulation is applied to the delineated areas using a screw actuated syringe. Active application is carried out on one of the delineated areas using the three-quarter profile of a purpose made applicator (e.g., an applicator presenting one of the magnetic arrays set forth in Table 2). Passive application is accomplished on the other delineated area using the tip of a finger in a sweeping motion identical to that of the active application. The formulation is spread evenly across the entire delineated region using a sweeping motion with a fixed speed of approximately 23 cm/s to […]. The application period is 30 seconds during which time visual inspection is used to ensure even distribution and absorption of the formulation by skin. The application area is then left uncovered for a further 30 minutes to ensure complete absorption. Tape strip samples may be collected and/or analyzed immediately after the complete absorption is ensured or after a waiting period (e.g., after multiple applications of the formulation over multiple hours or days).
The tape stripping procedure is carried out using 10 commercial pre-cut 22.1 mm tape stripping adhesive discs (e.g., D-SQUAME, available from Cuderm Corporation or equivalent) with an adhesive area of 3.8 cm^2. The 10 tape strips are applied sequentially to the same sampling site, which ideally enables each tape strip to obtain a sample from deeper within the stratum corneum than the tape strip that preceded it. A 22.1 mm diameter circular region is marked at the center of the application area. A tape stripping adhesive disc is placed over the marked area and even pressure applied using, for example, a neoprene roller, rolled ten times over the adhesive disc. The adhesive disc is removed from the skin surface in a single pulling motion using manual tweezers. To ensure even removal of the skin sample, subsequent discs are removed in a “north, south, east and west” orientation, which is within the skill of the ordinary artisan. Each adhesive disc is non-destructively analysed for protein content using a suitable instrument (e.g., SquameScan™ 850 instrument commercially available from Heiland Electronics Wetzlar, Germany, or equivalent). The adhesive disc is then immediately placed into a glass vial containing extraction solvent in preparation for subsequent analysis. Solvent extractions are conducted on each tape strip using conventional extraction methods, which are well known to those of ordinary skill in the art, and measuring the amount of Pal-KTTKS (SEQ ID NO: 1) present in the extract, for example, by high performance liquid chromatography (“HPLC”) and/or mass spectrometry.
The procedure is repeated for the remaining nine strips. An additional strip is obtained from outside the area of application of the skin care formulation to serve as a blank sample. The amount of active is normalized to the amount of protein measured.
This in vivo skin penetration study compares the penetration of Pal-KTTKS (SEQ ID NO: 1) into skin when a Pal-KTTKS (SEQ ID NO: 1)-containing composition is applied with a magnetic applicator (active application) versus application with a non-magnetic applicator (passive application). In this example, 5 test subjects (A to E in Tables 13 and 14) were selected. 18 mg of a composition containing Pal-KTTKS (SEQ ID NO: 1) (Olay® Deep Wrinkle Treatment® brand skin cream available from the Procter & Gamble Company, Cincinnati, Ohio) was applied to two 3 cm×3 cm test sites on the inner forearms of each test subject using the applicator illustrated in FIG. 1C. The applicator used for active application included Array #8 from Table 2. […]

[3] = active, array #8, Avg of all test sites
[4] = active, array #8, subject A site 1
[5] = active, array #8, subject A site 2
[6] = active, array #8, subject B site 1
[7] = active, array #8, subject B site 2
[8] = active, array #8, subject C site 1
[9] = active, array #8, subject C site 2
[10] = active, array #8, subject D site 1
[11] = active, array #8, subject D site 2
[12] = active, array #8, subject E site 1
[13] = active, array #8, subject E site 2

penetration enhancement of Pal-KTTKS into epidermis [1]: best penetration enhancement
amount of Pal-KTTKS recovered, Sum 2-10 [2, 3]: 42.02
amount of Pal-KTTKS recovered, Sum 6-10 [2, 3]: 22.74
amount of Pal-KTTKS recovered, Sum 2-10 [2, 4]: 83.43
amount of Pal-KTTKS recovered, Sum 6-10 [2, 4]: 53.81
amount of Pal-KTTKS recovered, Sum 2-10 [2, 5]: 40.40
amount of Pal-KTTKS recovered, Sum 6-10 [2, 5]: 17.29
amount of Pal-KTTKS recovered, Sum 2-10 [2, 6]: 42.67
amount of Pal-KTTKS recovered, Sum 6-10 [2, 6]: 21.36
amount of Pal-KTTKS recovered, Sum 2-10 [2, 7]: 36.84
amount of Pal-KTTKS recovered, Sum 6-10 [2, 7]: 16.95
amount of Pal-KTTKS recovered, Sum 2-10 [2, 8]: 31.64
amount of Pal-KTTKS recovered, Sum 6-10 [2, 8]: 19.40
amount of Pal-KTTKS recovered, Sum 2-10 [2, 9]: 90.87
amount of Pal-KTTKS recovered, Sum 6-10 [2, 9]: 54.66
amount of Pal-KTTKS recovered, Sum 2-10 [2, 10]: 18.10
amount of Pal-KTTKS recovered, Sum 6-10 [2, 10]: 9.26
amount of Pal-KTTKS recovered, Sum 2-10 [2, 11]: 18.31
amount of Pal-KTTKS recovered, Sum 6-10 [2, 11]: 8.02
amount of Pal-KTTKS recovered, Sum 2-10 [2, 12]: 31.17
amount of Pal-KTTKS recovered, Sum 6-10 [2, 12]: 14.86
amount of Pal-KTTKS recovered, Sum 2-10 [2, 13]: 26.78
amount of Pal-KTTKS recovered, Sum 6-10 [2, 13]: 11.84
Enhancement value Strips 2-10 (active/passive) ([2]; array #8, Avg of the enhancement values of all test sites): 4.00
Enhancement value Strips 2-10 (active/passive) ([2]; array #8, subject A site 1): 1.34
Enhancement value Strips 6-10 (active/passive) ([2]; array #8, subject A site 1): 1.33
Enhancement value Strips 2-10 (active/passive) ([2]; array #8, subject A site 2): 16.52
Enhancement value Strips 2-10 (active/passive) ([2]; array #8, subject B site 1): 3.39
Enhancement value Strips 6-10 (active/passive) ([2]; array #8, subject B site 1): 18.16
Enhancement value Strips 2-10 (active/passive) ([2]; array #8, subject B site 2): 3.47
Enhancement value Strips 2-10 (active/passive) ([2]; array #8, subject C site 1): 2.23
Enhancement value Strips 6-10 (active/passive) ([2]; array #8, subject C site 1): 3.03
Enhancement value Strips 2-10 (active/passive) ([2]; array #8, subject C site 2): 1.32
Enhancement value Strips 6-10 (active/passive) ([2]; array #8, subject C site 2): 1.22
Enhancement value Strips 2-10 (active/passive) ([2]; array #8, subject D site 1): 1.72
Enhancement value Strips 6-10 (active/passive) ([2]; array #8, subject D site 1): 3.63
Enhancement value Strips 2-10 (active/passive) ([2]; array #8, subject D site 2): 2.35
Enhancement value Strips 2-10 (active/passive) ([2]; array #8, subject E site 1): 4.86
Enhancement value Strips 6-10 (active/passive) ([2]; array #8, subject E site 1): 10.70
Enhancement value Strips 2-10 (active/passive) ([2]; array #8, subject E site 2): 2.75
Enhancement value Strips 6-10 (active/passive) ([2]; array #8, subject E site 2): 6.73
amount of Pal-KTTKS recovered, Sum 2-10 ([2]; passive, Avg of all test sites): 20.55
amount of Pal-KTTKS recovered, Sum 6-10 ([2]; passive, Avg of all test sites): 10.01
amount of Pal-KTTKS recovered, Sum 2-10 ([2]; passive, subject A site 1): 62.40
amount of Pal-KTTKS recovered, Sum 6-10 ([2]; passive, subject A site 1): 40.39
amount of Pal-KTTKS recovered, Sum 2-10 ([2]; passive, subject A site 2): 2.45
amount of Pal-KTTKS recovered, Sum 6-10 ([2]; passive, subject A site 2): 0.00
amount of Pal-KTTKS recovered, Sum 2-10 ([2]; passive, subject B site 1): 12.58
amount of Pal-KTTKS recovered, Sum 6-10 ([2]; passive, subject B site 1): 2.25
amount of Pal-KTTKS recovered, Sum 2-10 ([2]; passive, subject B site 2): 10.61
amount of Pal-KTTKS recovered, Sum 6-10 ([2]; passive, subject B site 2): 1.04
amount of Pal-KTTKS recovered, Sum 2-10 ([2]; passive, subject C site 1): 14.16
amount of Pal-KTTKS recovered, Sum 6-10 ([2]; passive, subject C site 1): 5.56
amount of Pal-KTTKS recovered, Sum 2-10 ([2]; passive, subject C site 2): 68.87
amount of Pal-KTTKS recovered, Sum 6-10 ([2]; passive, subject C site 2): 43.44
amount of Pal-KTTKS recovered, Sum 2-10 ([2]; passive, subject D site 1): 10.53
amount of Pal-KTTKS recovered, Sum 6-10 ([2]; passive, subject D site 1): 3.35
amount of Pal-KTTKS recovered, Sum 2-10 ([2]; passive, subject D site 2): 7.81
amount of Pal-KTTKS recovered, Sum 6-10 ([2]; passive, subject D site 2): 0.00
amount of Pal-KTTKS recovered, Sum 2-10 ([2]; passive, subject E site 1): 6.41
amount of Pal-KTTKS recovered, Sum 6-10 ([2]; passive, subject E site 1): 1.72
amount of Pal-KTTKS recovered, Sum 2-10 ([2]; passive, subject E site 2): 9.74
amount of Pal-KTTKS recovered, Sum 6-10 ([2]; passive, subject E site 2): 2.31
SMILES: CCCCCCCCCCCCCCCC(=O)N[C@@H](CCCCN)C(=O)N[C@H](C(=O)N[C@H](C(=O)N[C@@H](CCCCN)C(=O)N[C@@H](CO)C(=O)O)[C@@H](C)O)[C@@H](C)O [Pal-KTTKS, palmitoyl-lysine-threonine-threonine-lysine-serine] (Palmitoyl-KTTKS-OH; C-terminus assumed)
